Test results reported in PMC4438233, “Antibacterial effects of Traditional Chinese Medicine monomers against Streptococcus pneumoniae via inhibiting pneumococcal histidine kinase (VicK)” (Frontiers in Microbiology, 2015).
Read-outs that look alike come from different tables or passages of the source. Marks after values point to notes of the source that are not given here.

Assays:
[1] = Cytotoxicity assay (MTT); assay type: cell-based; conditions: African green monkey
Description: The cytotoxicity of the drugs to Vero cells (African green monkey kidney cells) was detected as previously described (Huang et al., [2012]) with minor modifications. In 96-well cell culture plates, the cells (~10^3 cells per well) were exposed to the serially diluted drugs for 48 h. Then, relative cell numbers were assayed by co-incubation with 3-(4, 5-dimethylthiazol-2-yl)-2, 5-diphenyltetrazolium bromide for 4 h at 37°C in 5% CO2. Purple formazan salts were dissolved with DMSO after incubation. The absorbance of each well was measured at 595 nm and then converted to percentages of the control (cells treated with 1% DMSO). The concentration of the derivatives with 50% cytotoxicity for Vero cells (CC50) was calculated using GraphPad Prism 5 (San Diego, CA).

[2] = tested on: S. pyogenes; assay: MIC against S. pyogenes; assay type: cell-based; conditions: Streptococcus pyogenes
Description: (§1) Minimum inhibitory concentration (MIC) assays for the antibacterial activities of the compounds were performed according to the standard […] method of the Clinical and Laboratory Standards Institute of America. MIC testing of drug-resistant S. pneumoniae, drug-resistant S. aureus, streptococci and antimicrobial combination was also performed using the same method. Briefly, the drugs were serially diluted 2-fold into eight wells with C+Y medium, yielding final concentrations ranging from […]. Then 10^6 CFU bacteria were added to each well. Inoculated medium containing 1% DMSO served as a bacterial growth control, whereas uninoculated medium served as a sterility control. The plates were incubated at 37°C for 12–16 h. […] The experiment was repeated three times.

[3] = tested on: S. mitis; assay: MIC against S. mitis; assay type: cell-based; conditions: Streptococcus mitis
Description: as §1

[4] = tested on: S. pneumoniae NCTC7466 biofilm; assay: Biofilm-killing assay (crystal violet); assay type: cell-based, Streptococcus pneumoniae; conditions: crystal violet staining; 15.6–2000 μM; MIC or sub-MIC levels
Description: Biofilm formation was detected using a semiquantitative plate assay (Moscoso et al., [2006]). 10^6 CFU of D39 was incubated in C+Y medium for 6 h in a 96-well plate at 37°C. Then removed the planktonic cells, fresh C+Y medium containing the serially diluted drugs was added to each well and incubated for another 12 h at 37°C. The wells were washed gently three times with phosphate-buffered saline (PBS) and then stained with 1% (w/v) crystal violet. 200 μL methanol was added to dissolve the precipitate and determine the absorbance of the wells at 590 nm using a spectrophotometer (DTX880, Beckman Coulter, USA). The values of biofilm formation were normalized for absorbance, and the percentages were calculated in relation to control. The experiment was repeated twice.

[5] = tested on: clinical S. pneumoniae 19F (CMCC31693); assay: Mouse colonization model, serotype 19F; assay type: in vivo, BALB/c mice; conditions: for Mean log CFU at site of infection: 19F; for reduction in 19F bacterial numbers: at 24 h
Description: In colonization models, the mice were intranasally challenged by 20 μL of clinical drug-resistant strains (pneumococcal serotype 19F or 19A, 1.5 × 10^8 CFU). An hour later, the mice were intraperitoneally injected with 100 μL drugs (2 × MIC) alone or in combination with PEN (2 × MIC). These injections were continued thrice a day for 3 d. Nasal wash and lung tissues were obtained to analyze the bacteria load at 24, 48, and 72 h after drug infection. Then 100 μL aliquots of the samples diluted were plated on blood agar plates. The colonies were counted after incubation overnight at 37°C with 5% CO2.

[6] = NW (nasal wash), 24 h, i.p. three times a day for 3 days, control 6.72

| SMILES | CC50 at 48 h ([1]; Vero cells (African green monkey kidney cells)) | MIC ([2]; S. pyogenes clinical isolate, 10^6 CFU/ml, read-out: MIC) | MIC ([3]; S. mitis clinical isolate, 10^6 CFU/ml, read-out: MIC) | inhibition of biofilm formation [4] | Mean log CFU at site of infection ([5]; Lung, 24 h, control 2.82) | Mean log CFU at site of infection ([5]; Lung, 48 h, control 7.57) | Mean log CFU at site of infection ([5]; Lung, 72 h, control 4.95) | Mean log CFU at site of infection [5, 6] | Mean log CFU at site of infection ([5]; NW, 48 h, control 6.27) | Mean log CFU at site of infection ([5]; NW, 72 h, control 7.09) | reduction in 19F bacterial numbers [5] | CC50 at 48 h ([1]; Vero cells) | MIC [2] | MIC [3] |
| --- | --- | --- | --- | --- | --- | --- | --- | --- | --- | --- | --- | --- | --- | --- |
| CCCCCCCCCCCCOC(=O)c1cc(O)c(O)c(O)c1 [Compound 5, Dodecyl gallate] | 6.45 mM | 42 µg/mL | 338 µg/mL | inhibit biofilm formation at sub-MIC | 3.9 (0.0001)^b log CFU | 3 (0.006)^b log CFU | 2.8 (<0.0001)^b log CFU | 2.16 log CFU | 5.55 log CFU | 5.82 (<0.0001)^b log CFU | one-log reduction | – | – | – |
| CC(C)=CCCC1=CC(=O)c2c(O)ccc(O)c2C1=O [Compound 3, Deoxyshikonin] | – | – | – | inhibit biofilm formation at sub-MIC | 1 (<0.0001)^b log CFU | 1 (0.001)^b log CFU | 2.5 (<0.0001)^b log CFU | 3.30 log CFU | 4.6 (0.0002)^b log CFU | 5.52 (<0.0001)^b log CFU | one-log reduction | 4.68 mM | 8.5 µg/mL | 125 µg/mL |
